The subject of one assay is Hdh111Q cells. Nature of the assay: Evaluation of inhibitors in Hdh111Q cells (toxicity, caspase activation). The following applies: for Hdh111Q mediated toxicity: 1-100 nM; for Caspase activation in Hdh111Q cells: FIG. 18. The assay is classed as cell-based.
The target of the next assay is T1, Caspase 3 (Homo sapiens, UniProt P42574).
T1 sequence (P42574 29-175 limits assumed): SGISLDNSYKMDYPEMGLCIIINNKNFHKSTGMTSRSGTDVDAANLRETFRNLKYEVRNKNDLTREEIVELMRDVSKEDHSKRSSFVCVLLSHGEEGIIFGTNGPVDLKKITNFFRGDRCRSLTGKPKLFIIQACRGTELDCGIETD
T1 sequence (P42574 176-277 limits assumed): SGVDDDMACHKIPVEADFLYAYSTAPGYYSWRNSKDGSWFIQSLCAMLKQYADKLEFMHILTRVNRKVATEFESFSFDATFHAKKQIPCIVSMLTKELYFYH
Nature of the assay: Blots of full-length huntingtin (23Q & 148Q) treated with Caspase 3 plus inhibitor. The following applies: for Proteolysis of Htt at amino acid 513 (caspase-3 site): 1-100 nM; for Inhibition of Caspase 3 cleavage of full-length huntingtin (blot): 23Q & 148Q, at 0.1 μM, 1.0 μM and 10 μM; for Blocking the cleavage of Htt at amino acid 513 mediated by caspase-3: conclusion. The assay is classed as biochemical.

For the compound `C[C@@](NS(=O)(=O)Cc1ccccc1)(c1cn([C@@H](CC(=O)O)C(=O)COc2c(F)c(F)cc(F)c2F)nn1)C1CCCCC1` [MJL-001i], in the assay with Hdh111Q cells, the Hdh111Q mediated toxicity result is “suppressed” and the “Caspase activation in Hdh111Q cells” value is “block”. At Caspase 3, the “Proteolysis of Htt at amino acid 513 (caspase-3 site)” value is “blocked”, the “Inhibition of Caspase 3 cleavage of full-length huntingtin (blot)” value is “inhibition” and the “Blocking the cleavage of Htt at amino acid 513 mediated by caspase-3” value was “affective at blocking”.
The corresponding values for `C[C@@](NC(=O)CCCC(=O)O)(c1cn([C@@H](CC(=O)O)C(=O)COc2c(F)c(F)cc(F)c2F)nn1)C1CCCCC1` [MJL-002i] are “suppressed”, “block”, “blocked”, “inhibition” and “affective at blocking”.
`C[C@@](NC(=O)Cc1ccccc1)(c1cn([C@@H](CC(=O)O)C(=O)COc2c(F)c(F)cc(F)c2F)nn1)C1CCCCC1` [MJL-003i]: in the assay on Hdh111Q cells, the Hdh111Q mediated toxicity result was “suppressed” and the “Caspase activation in Hdh111Q cells” value is listed as “block”. In addition, the “Rank of potency in blocking caspase activation in Hdh111Q cells” value in the assay with Hdh111Q cells (among MJL-001i, MJL-002i, MJL-003i) is “most potent”. For the same compound, at Caspase 3, the “Proteolysis of Htt at amino acid 513 (caspase-3 site)” value was “blocked”, the “Inhibition of Caspase 3 cleavage of full-length huntingtin (blot)” value is “inhibition” and the “Blocking the cleavage of Htt at amino acid 513 mediated by caspase-3” value was “affective at blocking”.

For the origin of these results see US8518942B2, “Caspase inhibitors and uses thereof” (Buck Institute for Research on Aging, priority 2008, dated 2013).
